Measured values as given in patent publication US6262293A, “ω-Cycloalkly-prostaglandin e2 derivatives” (Ono Pharmaceutical Co., Ltd., priority 1997, dated 2001).

Tests used:
Settings in all cases: CHO cell membrane fraction; 2.5 nM 3H-PGE2; pH 6.0; room temperature, 1 hour; more polar stereoisomer
mouse EP2 = target: T1, mouse EP2 (Mus musculus, UniProt Q62053); assay: Binding assay using expression cell of prostanoids receptor subtype (competition of specific 3H-PGE2 binding), EP2
T1 construct: expressed in transfected cells; host or cells: CHO cells (membrane fraction)
Method: (§1) (i) Binding Assay Using Expression Cell of Prostanoids Receptor Subtype
(§2) The preparation of membrane fraction was carried out according to the method of Sugimoto et. al., [J. Biol. Chem., 267, 6463-6466 (1992)], using expression CHO cell of the prostanoids receptor subtype (mouse EP1, EP2, EP3α, EP4).
(§3) The standard assay mixture containing membrane fraction (0.5 mg/ml) and [^3 H]-PGE2 ([…]) in a final volume of 200 μl was incubated at room temperature for 1 hour. The reaction was terminated by addition of ice-cooled buffer (3 ml). The mixture was filtered through a GF/B glass filter under reduced pressure. The radioactivity associated with the filter was measured by liquid scintillation counter.
(§4) Kd and Bmax values were determined from Scatchard plots [Ann. N. Y. Acad. Sci., 51, 660 (1949)]. Non-specific binding was calculated as the binding in the presence of an excess (2.5 μM) of unlabeled PGE2. In the experiment for competition of specific ^3 H-PGE2 binding by the compounds of the present invention, 2.5 nM of ^3 H-PGE2 and various concentrations of compounds of the present invention were added. The following buffer was used in all reactions.
(§5) Buffer: 10 mM potassium phosphate (pH 6.0), 1 mM EDTA, 10 mM MgCl2, 0.1 M NaCl.
(§6) All the values shown are those obtained using the more polar stereoisomer of the exemplified compounds. The dissociation constant; i.e. Ki (μM) of each compound was calculated by the following equation.

mouse EP3α = target: T2, mouse EP3α (Mus musculus, UniProt P30557); assay: Binding assay using expression cell of prostanoids receptor subtype (competition of specific 3H-PGE2 binding), EP3α
T2 construct: expressed in transfected cells; host or cells: CHO cells (membrane fraction)
T2 sequence (P30557 1-365): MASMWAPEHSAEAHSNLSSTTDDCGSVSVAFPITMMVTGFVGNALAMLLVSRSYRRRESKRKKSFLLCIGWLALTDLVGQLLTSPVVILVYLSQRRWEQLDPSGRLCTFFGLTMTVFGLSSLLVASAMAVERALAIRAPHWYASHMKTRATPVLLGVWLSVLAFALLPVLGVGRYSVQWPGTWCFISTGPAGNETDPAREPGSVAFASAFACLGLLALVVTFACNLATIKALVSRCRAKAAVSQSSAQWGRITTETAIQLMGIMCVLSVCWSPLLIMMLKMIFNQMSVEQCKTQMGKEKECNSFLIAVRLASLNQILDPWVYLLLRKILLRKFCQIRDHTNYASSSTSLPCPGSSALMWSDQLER
Method: as §1, §2, §3, §4, §5, §6

mouse EP1 = target: T3, mouse EP1 (Mus musculus, UniProt P35375); assay: Binding assay using expression cell of prostanoids receptor subtype (competition of specific 3H-PGE2 binding), EP1
T3 construct: expressed in transfected cells; host or cells: CHO cells (membrane fraction)
T3 sequence (P35375 1-405): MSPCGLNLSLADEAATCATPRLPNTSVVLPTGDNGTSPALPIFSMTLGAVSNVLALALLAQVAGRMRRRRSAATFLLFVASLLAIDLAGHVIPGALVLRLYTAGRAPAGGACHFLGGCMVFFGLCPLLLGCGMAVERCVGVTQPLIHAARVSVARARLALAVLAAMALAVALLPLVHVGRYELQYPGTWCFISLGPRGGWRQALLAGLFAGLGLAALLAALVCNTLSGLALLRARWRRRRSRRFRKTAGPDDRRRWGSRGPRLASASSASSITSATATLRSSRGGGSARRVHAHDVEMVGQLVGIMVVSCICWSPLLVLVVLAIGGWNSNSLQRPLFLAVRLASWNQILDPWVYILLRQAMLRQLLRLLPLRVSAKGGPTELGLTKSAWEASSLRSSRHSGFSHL
Method: as §1, §2, §3, §4, §5, §6

mouse EP4 = target: T4, mouse EP4 (Mus musculus, UniProt P32240); assay: Binding assay using expression cell of prostanoids receptor subtype (competition of specific 3H-PGE2 binding), EP4
T4 construct: expressed in transfected cells; host or cells: CHO cells (membrane fraction)
Method: as §1, §2, §3, §4, §5, §6

T4 sequence (P32240 whole entry): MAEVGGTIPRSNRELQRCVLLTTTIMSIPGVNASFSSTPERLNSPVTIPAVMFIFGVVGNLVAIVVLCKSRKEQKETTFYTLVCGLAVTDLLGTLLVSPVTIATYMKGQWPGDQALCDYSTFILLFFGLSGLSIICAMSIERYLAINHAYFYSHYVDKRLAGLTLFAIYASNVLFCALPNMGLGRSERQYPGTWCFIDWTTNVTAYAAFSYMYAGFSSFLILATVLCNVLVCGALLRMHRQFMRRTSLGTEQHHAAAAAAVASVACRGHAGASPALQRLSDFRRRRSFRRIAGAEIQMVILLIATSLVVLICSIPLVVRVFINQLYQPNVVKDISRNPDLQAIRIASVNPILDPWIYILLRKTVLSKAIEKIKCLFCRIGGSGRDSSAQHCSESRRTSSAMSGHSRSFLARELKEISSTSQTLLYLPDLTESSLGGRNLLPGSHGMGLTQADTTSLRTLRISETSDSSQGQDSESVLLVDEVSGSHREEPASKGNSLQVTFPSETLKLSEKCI
T1 sequence (Q62053 whole entry): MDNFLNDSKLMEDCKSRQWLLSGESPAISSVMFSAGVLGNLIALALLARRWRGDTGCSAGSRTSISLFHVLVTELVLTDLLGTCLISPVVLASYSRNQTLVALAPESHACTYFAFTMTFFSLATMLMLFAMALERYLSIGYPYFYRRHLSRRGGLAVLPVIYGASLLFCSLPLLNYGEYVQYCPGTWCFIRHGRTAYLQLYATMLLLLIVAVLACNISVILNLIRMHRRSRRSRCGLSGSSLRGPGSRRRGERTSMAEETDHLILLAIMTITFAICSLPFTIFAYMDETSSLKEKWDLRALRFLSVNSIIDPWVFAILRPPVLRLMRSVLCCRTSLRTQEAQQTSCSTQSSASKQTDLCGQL

| Compound | Ki (mouse EP2) | Ki (mouse EP3α) | Ki (mouse EP1) | Ki (mouse EP4) |
| --- | --- | --- | --- | --- |
| C=CCC1(C(O)C/C=C/[C@H]2[C@H](O)CC(=O)[C@@H]2CCc2ccc(C(=O)O)cc2)CCC1 (single isomer, unassigned) [Example 2(a), (11α,13E)-9-Oxo-11,16-dihydroxy-17,17-propano-1,6-(p-phenylene)-2,3,4,5-tetranorprost-13,19-dienoic Acid] | 9.7 nM | > 10000 nM | > 10000 nM | > 10000 nM |
| O=C(O)c1ccc(CSC2C(=O)C[C@@H](O)[C@@H]2/C=C/CC(O)C2(CC3CC3)CCC2)cc1 (stereo partly drawn) [Example 5(d), (11α,13E) -9-Oxo-11,16-dihydroxy-17,17-propano-19,20-methano-7-thia-1,6-(p-phenylene)-2,3,4,5-tetranorprost-13-enoic Acid] | 2 nM | > 10000 nM | > 10000 nM | 310 nM |
| O=C(O)c1ccc(CC[C@H]2C(=O)C[C@@H](O)[C@@H]2/C=C/CC(O)C2(CC3CC3)CCC2)cc1 (single isomer, unassigned) [Example 2(b), (11α,13E)-9-Oxo-11,16-dihydroxy-17,17-propano-19,20-methano-1,6-(p-phenylene)-2,3,4,5-tetranorprost-13-enoic Acid] | 6.1 nM | > 10000 nM | > 10000 nM | > 10000 nM |

Continued by falling Ki (mouse EP2), values first:

| Ki (mouse EP2) | Ki (mouse EP3α) | Ki (mouse EP1) | Ki (mouse EP4) | Compound |
| --- | --- | --- | --- | --- |
| 19 nM | > 10000 nM | > 10000 nM | 1500 nM | C=CCC1(C(O)C/C=C/[C@@H]2C(SCc3ccc(C(=O)O)cc3)C(=O)C[C@H]2O)CCC1 (stereo partly drawn) [Example 5(b), (11α,13E)-9-Oxo-11,16-dihydroxy-17,17-propano-7-thia-1,6-(p-phenylene)-2,3,4,5-tetranorprost-13,19-dienoic Acid] |
| 5.1 nM | > 10000 nM | > 10000 nM | > 10000 nM | C=CCC1(C(O)C/C=C/[C@@H]2[C@@H](CCc3ccc(C(=O)O)cc3)[C@H](Cl)C[C@H]2O)CCC1 (stereo partly drawn) [9(c), (9β,11α,13E) -9-Chloro-11,16-dihydroxy-17,17-propano-1,6-(p-phenylene)-2,3,4,5-tetranorprost-13,19-dienoic acid] |
